From patent publication US20240351986A1, “UREA COMPOUND CONTAINING 2-HETEROAROMATIC RING SUBSTITUTION, PREPARATION METHOD THEREFOR AND USE THEREOF” (SHANGHAI INSTITUTE OF MATERIA MEDICA, CHINESE ACADEMY OF …, priority 2021, published 2024)
Read-outs that look alike come from different tables or passages of the source.

Key:
CDK7/cyclin H = CDK7/cyclin H (Homo sapiens, UniProt P50613); assay: CDK7 enzyme activity inhibition; format: biochemical
Procedure: (§1) CDK1,4,6,7 enzyme (CDK1/cyclin B, CDK4/cyclin D1, CDK6/cyclin D1, CDK7/cyclin H) activity was measured using a 5 μL enzyme system (50 mM HEPES, 10 mM MgCl2, 1 mM EGTA, 2 mM DTT and 0.0100 Tween 20, appropriate enzyme) either. A mixture of 2.5 μL of compound, 2.5 µL of substrate and ATP (final concentration of substrate 50 nM, final concentration of ATP 200 μM) was incubated at room temperature in the dark for 60 minutes. Then 5 μL EDTA stop solution diluted in 1× detection buffer (final concentration 6 mM) was added to each well, then an antibody diluted in 1× detection buffer (final concentration 2 nM) was added to incubate for 1 hour at room temperature in the dark, and then the corresponding enzyme activity inhibition rate or IC50 was calculated after measurement.

CDK1/cyclin B = CDK1/cyclin B (Homo sapiens, UniProt P06493); assay: CDK1 enzyme activity inhibition; format: biochemical
Sequence of CDK1/cyclin B (P06493 whole entry, species assumed): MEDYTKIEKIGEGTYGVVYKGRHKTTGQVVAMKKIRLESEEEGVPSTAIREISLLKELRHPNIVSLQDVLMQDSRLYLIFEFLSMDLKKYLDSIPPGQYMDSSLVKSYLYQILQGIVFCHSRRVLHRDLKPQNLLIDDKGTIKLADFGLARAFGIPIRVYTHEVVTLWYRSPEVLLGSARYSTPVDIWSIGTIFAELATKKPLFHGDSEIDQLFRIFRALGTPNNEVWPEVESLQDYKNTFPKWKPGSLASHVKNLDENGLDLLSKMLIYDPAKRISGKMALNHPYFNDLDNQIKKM
Sequence of CDK1/cyclin B (P14635 whole entry partner, species assumed): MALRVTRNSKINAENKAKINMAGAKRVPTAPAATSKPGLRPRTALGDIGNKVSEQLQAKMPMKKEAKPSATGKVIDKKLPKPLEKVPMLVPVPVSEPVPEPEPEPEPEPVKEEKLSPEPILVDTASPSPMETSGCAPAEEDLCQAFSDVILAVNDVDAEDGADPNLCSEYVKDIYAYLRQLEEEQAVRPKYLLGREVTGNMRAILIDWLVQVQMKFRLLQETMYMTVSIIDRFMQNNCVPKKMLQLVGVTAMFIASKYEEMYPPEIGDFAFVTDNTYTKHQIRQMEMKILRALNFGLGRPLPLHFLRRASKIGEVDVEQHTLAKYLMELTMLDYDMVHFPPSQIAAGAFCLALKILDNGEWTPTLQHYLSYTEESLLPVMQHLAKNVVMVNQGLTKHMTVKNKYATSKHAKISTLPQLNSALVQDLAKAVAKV
Procedure: as §1

Mcl-1 = assay: Western Blot, CDK9 signaling pathway in WSU-DLCL2 cells: Mcl-1 expression; format: cell-based; conditions: 24 hours
Procedure: (§2) Western Blot was used to detect the effect of compounds on the activation of CDK9 signaling pathway in WSU-DLCL2 cells.
(§3) Experimental method: An appropriate amount of WSU-DLCL2 cells were seeded in a 6-well plate. After 24 hours of exposure to the test compound, the cells were collected by centrifugation. A corresponding amount of 1× loading buffer (50 mM Tris-HCl (pH6.8), 2% SDS, 0.1% bromophenol blue, 10% glycerol) was added, the sample was boiled at 100° C. after lysis. The same volume of sample was taken. After SDS-PAGE electrophoresis, the protein on the gel was transferred to a nitrocellulose membrane. The corresponding band was cut according to the size of the protein and blocked TBST containing 5% skimmed milk powder (20 mM Tris-HCl, 150 mM NaCl, 0.1% Tween20, adjust pH to 7.4) for 1 hour, and primary antibody was incubated overnight at 4° C. TBST was used to elute excess primary antibody for 10 minutes each time for three times, the secondary antibody was incubated at room temperature for 1 hour, and then TBST was used to elute excess secondary antibody for 10 minutes each time for three times. Finally, the strips were colored and photographed using a Bio-Rad colorimeter.

WSU-DLCL2 cells = assay: Tumor cell proliferation inhibition in vitro (CCK-8); format: cell-based; conditions: Homo sapiens, WSUDLCL2, 72 hours
Procedure: Experimental method: WSU-DLCL2 cells in good condition were seeded in a 96-well plate at 20,000/well. The test compound was gradient diluted with PBS and then added to the wells. After incubating with the cells for 72 hours, 10 μl of CCK-8 reagent was added to each well. After further incubation, the absorbance was measured at 460 nm and the 4-parameter curve fitting of Softmax Pro software was used to calculate the proliferation inhibition IC50 of the test compound.

422 = assay: Tumor cell proliferation inhibition in vitro; format: cell-based
[1] = test system: phosphorylation of Pol II S2 position; assay: Western Blot, CDK9 signaling pathway in WSU-DLCL2 cells: Pol II S2 phosphorylation; format: cell-based; conditions: 24 hours
Procedure: as §2, §3

Will2 = assay: Tumor cell proliferation inhibition in vitro; format: cell-based
[2] = biological target: T1, Recombinant human CDK9/cyclin T1 (Homo sapiens, UniProt P50750); assay: CDK9 enzyme inhibitory activity (ADP-Glo kinase assay); format: biochemical
T1 construct: purchased Carna bioscience 04-110
T1 sequence (P50750 whole entry): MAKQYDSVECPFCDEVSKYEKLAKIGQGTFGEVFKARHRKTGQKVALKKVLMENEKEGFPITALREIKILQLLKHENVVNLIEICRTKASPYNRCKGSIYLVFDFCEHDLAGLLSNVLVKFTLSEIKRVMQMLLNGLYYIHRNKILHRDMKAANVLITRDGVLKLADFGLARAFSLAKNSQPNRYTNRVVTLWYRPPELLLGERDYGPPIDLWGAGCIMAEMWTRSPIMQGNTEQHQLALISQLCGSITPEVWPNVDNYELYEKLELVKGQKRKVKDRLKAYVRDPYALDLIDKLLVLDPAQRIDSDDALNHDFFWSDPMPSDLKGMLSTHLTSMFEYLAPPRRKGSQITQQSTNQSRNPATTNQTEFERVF
T1 sequence (O60563 whole entry partner): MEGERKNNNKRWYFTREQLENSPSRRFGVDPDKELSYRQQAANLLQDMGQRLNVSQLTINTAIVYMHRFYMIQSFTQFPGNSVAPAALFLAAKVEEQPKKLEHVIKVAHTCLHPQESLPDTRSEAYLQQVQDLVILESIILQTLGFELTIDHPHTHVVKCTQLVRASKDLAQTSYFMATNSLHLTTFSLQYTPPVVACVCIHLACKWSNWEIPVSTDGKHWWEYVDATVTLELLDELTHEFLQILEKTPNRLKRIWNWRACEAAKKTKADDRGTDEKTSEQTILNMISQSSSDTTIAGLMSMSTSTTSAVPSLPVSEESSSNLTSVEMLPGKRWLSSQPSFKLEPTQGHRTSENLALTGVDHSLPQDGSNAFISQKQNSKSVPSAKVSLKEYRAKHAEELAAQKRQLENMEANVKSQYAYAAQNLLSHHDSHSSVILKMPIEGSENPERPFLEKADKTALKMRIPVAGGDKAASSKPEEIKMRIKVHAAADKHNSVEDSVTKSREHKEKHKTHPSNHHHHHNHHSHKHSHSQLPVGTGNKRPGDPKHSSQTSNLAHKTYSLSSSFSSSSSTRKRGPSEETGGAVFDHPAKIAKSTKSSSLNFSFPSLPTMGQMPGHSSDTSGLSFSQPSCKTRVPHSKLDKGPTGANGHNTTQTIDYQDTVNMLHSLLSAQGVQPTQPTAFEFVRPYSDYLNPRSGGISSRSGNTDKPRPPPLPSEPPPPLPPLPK

CDK4/cyclin D1 = CDK4/cyclin D1 (Homo sapiens, UniProt P11802); assay: CDK4 enzyme activity inhibition; format: biochemical
Sequence of CDK4/cyclin D1 (P11802 whole entry, species assumed): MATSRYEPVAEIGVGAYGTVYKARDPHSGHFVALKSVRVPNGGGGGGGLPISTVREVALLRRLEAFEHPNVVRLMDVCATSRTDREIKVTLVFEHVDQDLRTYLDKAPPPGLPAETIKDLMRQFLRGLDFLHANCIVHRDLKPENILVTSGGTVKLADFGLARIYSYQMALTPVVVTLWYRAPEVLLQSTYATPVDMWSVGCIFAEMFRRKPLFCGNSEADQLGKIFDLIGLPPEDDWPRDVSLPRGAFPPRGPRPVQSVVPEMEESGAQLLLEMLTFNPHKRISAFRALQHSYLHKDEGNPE
Sequence of CDK4/cyclin D1 (P24385 whole entry partner, species assumed): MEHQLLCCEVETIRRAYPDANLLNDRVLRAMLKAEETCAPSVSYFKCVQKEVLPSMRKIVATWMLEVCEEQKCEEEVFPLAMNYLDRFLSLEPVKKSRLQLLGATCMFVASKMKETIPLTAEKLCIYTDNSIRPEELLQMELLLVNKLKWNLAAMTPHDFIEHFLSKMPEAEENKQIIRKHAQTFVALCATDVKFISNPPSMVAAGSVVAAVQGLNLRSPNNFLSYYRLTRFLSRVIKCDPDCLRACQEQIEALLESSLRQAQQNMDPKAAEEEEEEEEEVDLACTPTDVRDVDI
Procedure: as §1

Pfeiffer = assay: Tumor cell proliferation inhibition in vitro; format: cell-based
CDK6/cyclin D1 = CDK6/cyclin D1 (Homo sapiens, UniProt Q00534); assay: CDK6 enzyme activity inhibition; format: biochemical
Sequence of CDK6/cyclin D1 (Q00534 whole entry, species assumed): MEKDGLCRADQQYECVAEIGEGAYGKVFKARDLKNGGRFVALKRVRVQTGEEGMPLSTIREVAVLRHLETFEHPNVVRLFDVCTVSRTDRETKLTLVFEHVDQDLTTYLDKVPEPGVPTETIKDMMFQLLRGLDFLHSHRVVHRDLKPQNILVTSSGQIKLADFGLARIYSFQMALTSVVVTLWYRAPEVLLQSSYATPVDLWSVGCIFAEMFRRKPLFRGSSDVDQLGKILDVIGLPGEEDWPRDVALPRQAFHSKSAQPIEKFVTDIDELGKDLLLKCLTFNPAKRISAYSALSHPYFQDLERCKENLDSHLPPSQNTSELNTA
Sequence of CDK6/cyclin D1 (P24385 whole entry partner, species assumed): as the sequence (P24385 whole entry partner, species assumed) above
Procedure: as §1

[3] = PK parameters in mice after iv and po administration (LC-MS/MS of plasma); format: in vivo; conditions: for AUC(0-inf): read-out: AUCINF_obs; for MRT inf: read-out: MRTINF_obs
Procedure: The relevant pharmacokinetic parameters were calculated to examine the oral bioavailability and pharmacokinetic properties of the compound in mice.

U2932 = assay: Tumor cell proliferation inhibition in vitro; format: cell-based; conditions: Homo sapiens
[4] = Identification of metabolites in mouse plasma; format: in vivo; conditions: mouse plasma, from metabolite identification
[5] = mouse, plasma, iv, 3 mg/kg, i.v.

Sequence of CDK7/cyclin H (P50613 whole entry, species assumed): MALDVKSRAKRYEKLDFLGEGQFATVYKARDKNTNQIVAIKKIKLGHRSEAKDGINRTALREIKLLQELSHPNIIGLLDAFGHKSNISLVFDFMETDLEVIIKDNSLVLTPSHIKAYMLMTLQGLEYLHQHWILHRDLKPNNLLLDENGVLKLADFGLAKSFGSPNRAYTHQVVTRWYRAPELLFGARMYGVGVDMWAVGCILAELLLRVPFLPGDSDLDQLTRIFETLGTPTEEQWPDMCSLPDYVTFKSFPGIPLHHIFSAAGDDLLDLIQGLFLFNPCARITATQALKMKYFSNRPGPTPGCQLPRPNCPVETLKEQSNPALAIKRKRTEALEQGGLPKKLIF
Sequence of CDK7/cyclin H (P51946 whole entry partner, species assumed): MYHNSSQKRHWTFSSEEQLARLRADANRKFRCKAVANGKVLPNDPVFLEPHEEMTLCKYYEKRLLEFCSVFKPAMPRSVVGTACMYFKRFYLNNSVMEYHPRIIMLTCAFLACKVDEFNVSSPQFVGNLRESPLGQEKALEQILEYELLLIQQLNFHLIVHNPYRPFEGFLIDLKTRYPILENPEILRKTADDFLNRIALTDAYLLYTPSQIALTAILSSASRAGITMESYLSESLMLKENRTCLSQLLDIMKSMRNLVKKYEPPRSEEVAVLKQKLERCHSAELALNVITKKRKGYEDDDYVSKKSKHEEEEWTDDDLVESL

- inhibition at 0.01 µM (CDK7/cyclin H; compound 10 nM, read-out: CDK7/Cyc H inhibition rate % 10 nM): 15%
- inhibition at 0.1 µM (CDK7/cyclin H; compound 100 nM, read-out: CDK7/Cyc H inhibition rate % 100 nM): 50%
- inhibition at 0.01 µM (CDK1/cyclin B; compound 10 nM, read-out: CDK1/Cyc B inhibition rate % 10 nM): 5%
- inhibition at 0.1 µM (CDK1/cyclin B; compound 100 nM, read-out: CDK1/Cyc B inhibition rate % 100 nM): 33.4%
- IC50 (WSU-DLCL2 cells): < 4.5 nM
- IC50 (422; proliferation): 0.089 nM
- IC50 (Will2): 2.16 nM
- inhibition at 0.01 µM ([2]; CDK9 enzyme activity, compound 10 nM, average of two independent repeats, read-out: Inhibition rate at different concentrations (%) 10 nM): 71%
- inhibition at 0.1 µM ([2]; CDK9 enzyme activity, compound 100 nM, average of two independent repeats, read-out: Inhibition rate at different concentrations (%) 100 nM): 84%
- IC50 ([2]; Table 2, read-out: CDK9/CycT1 IC50): 5.1 nM
- inhibition at 0.01 µM (CDK4/cyclin D1; compound 10 nM, read-out: CDK4/Cyc D1 inhibition rate % 10 nM): 13.6%
- inhibition at 0.1 µM (CDK4/cyclin D1; compound 100 nM, read-out: CDK4/Cyc D1 inhibition rate % 100 nM): 41.1%
- IC50 (Pfeiffer; Homo sapiens, Pfeiffer, proliferation): 0.052 nM
- inhibition at 0.01 µM (CDK6/cyclin D1; compound 10 nM, read-out: CDK6/Cyc D1 inhibition rate % 10 nM): 4.6%
- inhibition at 0.1 µM (CDK6/cyclin D1; compound 100 nM, read-out: CDK6/Cyc D1 inhibition rate % 100 nM): 26.7%
- plasma clearance rates compared with AZD4573 [3]: lower
- CL_obs ([3]; i.v.): 102 mL/min/kg
- Vss_obs ([3]; i.v.): 14.318 L/kg
- AUC(0-t) ([3]; mouse, plasma, iv, 3 mg/kg): 480 ng·h/mL
- half-life ([3]; mouse, plasma, iv, 3 mg/kg): 3.84 h
- AUC(0-inf) [3, 5]: 491 ng·h/mL
- MRT inf [3, 5]: 2.34 h
- AUC(0-t) ([3]; mouse, plasma, po): 98.8 ng·h/mL
- Cmax ([3]; mouse, plasma, po): 58.2 ng/mL
- Tmax ([3]; mouse, plasma, po): 0.5 h
- half-life ([3]; mouse, plasma, po, 10 mg/kg): 1.5 h
- AUC(0-inf) ([3]; mouse, plasma, po): 100 ng·h/mL
- MRT inf ([3]; mouse, plasma, po): 1.57 h
- F ([3]; oral bioavailability): 6.18%
- IC50 (U2932): 0.932 nM
- plasma stability compared with positive compound AZD4573 [4]: higher plasma stability
Compound: CC(=O)N[C@H]1CC[C@H](NC(=O)Nc2cc(-c3cnn4c3CC(C)(C)C4)c(Cl)cn2)CC1 [Example 47, N-((1r,4r)-4-(3-(5-chloro-4-(5,5-dimethyl-5,6-dihydro-4H-pyrrolo[1,2-b]pyrazol-3-yl)pyridin-2-yl)ureido)cyclohexyl)acetamide]
- Mcl-1 expression (Mcl-1; 50 nM): significant decrease
- Mcl-1 expression (Mcl-1; 100 nM): almost completely blocked
- growth inhibition potency relative to positive control compound AZD4573 (422; 422 cells, IC50 ratio): 20.33 times
- phosphorylation of Pol II S2 position ([1]; 50 nM, vs control group): significantly down-regulated
- phosphorylation of Pol II S2 position ([1]; 100 nM): basically completely inhibited
- growth inhibition potency relative to positive control compound AZD4573 (Pfeiffer; Pfeiffer cells, IC50 ratio): 46.67 times
